Experimental data: PMC4079327 (Journal of Medicinal Chemistry, 2014)

What was measured:
HsDHODH = HsDHODH (Homo sapiens, UniProt Q02127); assay: DHODH steady-state inhibition, DCIP assay; assay type: biochemical
PfDHODH [1] = target: T1, PfDHODH (Plasmodium falciparum, UniProt Q08210, DEL384-413); assay: Isothermal titration calorimetry; assay type: binding; settings: ITC, 303 K; for ΔH PfDHODH: 1σ confidence interval in parentheses
T1 sequence (Q08210 with tags, fused parts or gaps DEL384-413): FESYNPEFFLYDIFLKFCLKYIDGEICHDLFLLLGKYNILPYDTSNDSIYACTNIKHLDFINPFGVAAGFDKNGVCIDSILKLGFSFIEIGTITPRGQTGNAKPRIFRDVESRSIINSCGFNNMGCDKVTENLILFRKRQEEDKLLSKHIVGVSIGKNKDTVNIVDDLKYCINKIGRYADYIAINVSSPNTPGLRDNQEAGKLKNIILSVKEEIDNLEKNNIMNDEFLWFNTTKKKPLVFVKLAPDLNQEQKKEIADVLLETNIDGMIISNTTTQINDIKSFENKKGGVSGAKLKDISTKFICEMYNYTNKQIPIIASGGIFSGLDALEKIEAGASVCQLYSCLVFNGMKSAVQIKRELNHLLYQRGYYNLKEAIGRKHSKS

HsDHODH L46A = HsDHODH L46A (Homo sapiens, UniProt Q02127, L45A); assay: biochemical
Chain of HsDHODH L46A (Q02127 32-395 L45A): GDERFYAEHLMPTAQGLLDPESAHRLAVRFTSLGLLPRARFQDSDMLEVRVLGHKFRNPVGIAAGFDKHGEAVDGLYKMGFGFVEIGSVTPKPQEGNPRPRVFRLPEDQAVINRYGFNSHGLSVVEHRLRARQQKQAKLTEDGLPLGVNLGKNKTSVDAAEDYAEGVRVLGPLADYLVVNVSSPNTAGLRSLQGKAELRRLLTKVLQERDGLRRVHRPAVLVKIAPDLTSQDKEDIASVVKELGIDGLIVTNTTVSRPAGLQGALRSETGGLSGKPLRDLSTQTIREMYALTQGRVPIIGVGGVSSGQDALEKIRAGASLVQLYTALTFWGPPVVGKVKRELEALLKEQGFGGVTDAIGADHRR

rat DHODH = rat DHODH (Rattus norvegicus, UniProt Q63707); assay: Isothermal titration calorimetry; assay type: binding; settings: ITC, 303 K; for ΔH rat DHODH: 1σ confidence interval in parentheses
Chain of rat DHODH (Q63707 32-395 limits assumed): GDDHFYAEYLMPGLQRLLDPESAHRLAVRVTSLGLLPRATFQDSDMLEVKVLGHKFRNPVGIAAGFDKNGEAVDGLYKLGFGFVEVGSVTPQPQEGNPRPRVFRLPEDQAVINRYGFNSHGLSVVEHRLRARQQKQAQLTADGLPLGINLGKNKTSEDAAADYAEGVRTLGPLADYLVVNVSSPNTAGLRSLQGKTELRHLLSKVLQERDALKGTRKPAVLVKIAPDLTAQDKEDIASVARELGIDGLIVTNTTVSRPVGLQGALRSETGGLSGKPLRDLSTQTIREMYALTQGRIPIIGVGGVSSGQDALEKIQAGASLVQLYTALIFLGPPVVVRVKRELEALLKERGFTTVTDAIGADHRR

HsDHODH R136A = HsDHODH R136A (Homo sapiens, UniProt Q02127, R135A); assay: biochemical
Chain of HsDHODH R136A (Q02127 32-395 R135A): as the sequence (Q02127 32-395 L45A) above, with A14L, R104A counted along it

dDHODH = dDHODH (Canis lupus familiaris, UniProt A0A8I3MWX2); assay: DHODH steady-state inhibition, DCIP assay; assay type: biochemical, dog
Chain of dDHODH (A0A8I3MWX2 29-395): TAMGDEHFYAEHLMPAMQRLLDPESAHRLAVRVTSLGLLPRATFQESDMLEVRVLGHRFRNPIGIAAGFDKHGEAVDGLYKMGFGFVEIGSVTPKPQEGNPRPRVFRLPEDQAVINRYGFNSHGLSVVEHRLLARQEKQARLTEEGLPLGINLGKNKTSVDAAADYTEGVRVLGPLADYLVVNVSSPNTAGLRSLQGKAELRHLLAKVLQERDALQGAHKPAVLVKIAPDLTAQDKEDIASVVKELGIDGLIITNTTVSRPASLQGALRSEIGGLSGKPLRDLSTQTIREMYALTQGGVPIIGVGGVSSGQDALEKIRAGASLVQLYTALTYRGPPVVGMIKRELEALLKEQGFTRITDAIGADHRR

rDHODH = rDHODH (Rattus norvegicus, UniProt Q63707); assay: DHODH steady-state inhibition, DCIP assay; assay type: biochemical
Chain of rDHODH (Q63707 29-395 limits assumed): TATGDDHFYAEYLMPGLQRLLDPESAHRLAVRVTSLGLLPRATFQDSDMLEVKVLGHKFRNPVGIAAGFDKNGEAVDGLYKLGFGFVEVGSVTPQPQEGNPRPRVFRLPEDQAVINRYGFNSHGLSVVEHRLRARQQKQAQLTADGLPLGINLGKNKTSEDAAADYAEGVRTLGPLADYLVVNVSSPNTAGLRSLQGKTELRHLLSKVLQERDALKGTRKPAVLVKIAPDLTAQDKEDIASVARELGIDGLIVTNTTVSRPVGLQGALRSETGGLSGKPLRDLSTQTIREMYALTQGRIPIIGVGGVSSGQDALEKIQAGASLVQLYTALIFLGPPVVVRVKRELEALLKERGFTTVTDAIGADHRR

mDHODH = mDHODH (Mus musculus, UniProt O35435); assay: DHODH steady-state inhibition, DCIP assay; assay type: biochemical
Chain of mDHODH (O35435 29-395 limits assumed): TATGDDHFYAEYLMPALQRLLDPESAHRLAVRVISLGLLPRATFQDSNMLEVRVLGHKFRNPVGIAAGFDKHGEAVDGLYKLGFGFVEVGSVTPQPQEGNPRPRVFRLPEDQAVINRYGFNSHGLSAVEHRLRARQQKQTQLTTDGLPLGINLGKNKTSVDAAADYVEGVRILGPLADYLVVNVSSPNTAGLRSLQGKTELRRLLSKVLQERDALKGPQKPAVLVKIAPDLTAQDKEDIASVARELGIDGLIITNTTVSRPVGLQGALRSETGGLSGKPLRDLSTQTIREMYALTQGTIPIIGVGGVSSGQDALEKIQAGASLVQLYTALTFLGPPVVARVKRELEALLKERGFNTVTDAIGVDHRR

P. falciparum 3D7 cells = settings: read-out: IC50 P. falciparum 3D7 cells; cited from earlier work
PfDHODH [2] = target: T2, PfDHODH (Plasmodium falciparum, UniProt Q08210); settings: read-out: IC50 PfDHODH; cited from earlier work
T2 sequence (Q08210 158-569): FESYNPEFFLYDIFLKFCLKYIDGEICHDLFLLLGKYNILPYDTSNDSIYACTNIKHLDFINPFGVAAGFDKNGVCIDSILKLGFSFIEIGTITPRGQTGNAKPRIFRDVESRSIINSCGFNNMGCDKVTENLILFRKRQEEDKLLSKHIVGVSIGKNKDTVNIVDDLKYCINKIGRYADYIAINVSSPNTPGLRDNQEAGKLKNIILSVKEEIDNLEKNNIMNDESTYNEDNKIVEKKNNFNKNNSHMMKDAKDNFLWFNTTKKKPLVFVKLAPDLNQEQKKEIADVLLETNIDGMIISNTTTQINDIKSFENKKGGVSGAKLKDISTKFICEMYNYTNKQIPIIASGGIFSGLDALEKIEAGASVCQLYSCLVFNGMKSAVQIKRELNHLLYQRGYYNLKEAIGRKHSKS

HsDHODH L359A = HsDHODH L359A (Homo sapiens, UniProt Q02127, L358A); assay: biochemical
Chain of HsDHODH L359A (Q02127 32-395 L358A): as the sequence (Q02127 32-395 L45A) above, with A14L, L327A counted along it

Chain of HsDHODH (Q02127 29-395 limits assumed): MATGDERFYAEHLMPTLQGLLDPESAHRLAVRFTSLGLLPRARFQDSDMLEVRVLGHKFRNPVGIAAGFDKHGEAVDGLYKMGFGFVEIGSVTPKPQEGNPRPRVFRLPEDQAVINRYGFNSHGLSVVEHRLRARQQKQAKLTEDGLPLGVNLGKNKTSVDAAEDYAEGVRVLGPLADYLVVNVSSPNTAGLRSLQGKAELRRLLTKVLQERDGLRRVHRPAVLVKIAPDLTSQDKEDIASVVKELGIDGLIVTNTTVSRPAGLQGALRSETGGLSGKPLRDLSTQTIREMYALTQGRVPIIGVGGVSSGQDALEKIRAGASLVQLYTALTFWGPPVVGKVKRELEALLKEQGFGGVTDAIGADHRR

Row | SMILES | inhibition of the human enzyme (in words) (HsDHODH) | –TΔS PfDHODH (PfDHODH [1]) | ΔH PfDHODH (PfDHODH [1]) | IC50 (HsDHODH L46A) | ΔH rat DHODH (rat DHODH) | IC50 (HsDHODH R136A) | inhibition of dog DHODH (in words) (dDHODH) | inhibition of rat DHODH (in words) (rDHODH) | inhibition of mouse DHODH (in words) (mDHODH) | IC50 (P. falciparum 3D7 cells) | IC50 (PfDHODH [2]) | IC50 (HsDHODH L359A) | –TΔS rat DHODH (rat DHODH)
1 | Cc1cc(Nc2ccc(C(F)(F)F)cc2)n2nc(C(C)(F)F)nc2n1 [Compound 5, 2-(1,1-difluoroethyl)-5-methyl-N-[4-(trifluoromethyl)phenyl]-[1,2,4]triazolo[1,5-a]pyrimidin-7-amine] | did not inhibit | –2.2 kcal/mol | –8.3 (−9.2 to −7.5) kcal/mol |  |  |  |  |  |  |  |  |  | 
2 | Cc1cc(Nc2cc(F)c(C(F)(F)F)c(F)c2)n2nc(C(F)(F)F)nc2n1 [Compound 6, N-(3,5-difluoro-4-(trifluoromethyl)phenyl)-2-(trifluoromethyl)-5-methyl-[1,2,4]-triazolo[1,5-a]pyrimidin-7-amine] |  | –4.5 kcal/mol | –6.5 (−6.9 to −6.2) kcal/mol | > 100 µM | –1.6 (−1.8 to −1.5) kcal/mol | > 100 µM |  |  |  |  |  |  | 
3 | Cc1cc(Nc2ccc(C(F)(F)F)cc2)n2ncnc2n1 [Compound 8, (5-methyl[1,2,4]triazolo[1,5-a]pyrimidin-7-yl)(4-trifluoromethylphenyl)amine] | did not inhibit | 1.5 kcal/mol | –10 (−12 to −9.8) kcal/mol |  |  |  | did not inhibit | did not inhibit | did not inhibit |  |  |  | 
4 | Cc1cc(Nc2cc(F)c(C(F)(F)F)c(F)c2)n2ncnc2n1 [Compound 9, N-(3,5-difluoro-4-(trifluoromethyl)phenyl)-5-methyl-[1,2,4]triazolo[1,5-a]pyrimidin-7-amine] |  |  |  |  |  |  |  |  |  | 0.22 µM | 0.13 µM |  | 
5 | Cc1cc(Nc2ccc(C(F)(F)F)c(F)c2)n2nc(C(C)(F)F)nc2n1 [Compound 10, 2-(1,1-difluoroethyl)-N-[3-fluoro-4-(trifluoromethyl)phenyl]-5-methyl [1,2,4]triazolo[1,5-a]pyrimidin-7-amine] |  | –2.1 kcal/mol | –9.0 (−9.3 to −8.7) kcal/mol | > 100 µM |  | > 100 µM |  |  |  |  |  | > 100 µM | 
6 | Cc1cc(Nc2cc(F)c(C(F)(F)F)c(F)c2)n2nc(C(C)(F)F)nc2n1 [Compound 11, N-(3,5-difluoro-4-(trifluoromethyl)phenyl)-2-(1,1-difluoroethyl)-5-methyl[1,2,4]-triazolo-[1,5-a]pyrimidin-7-amine] |  | –3.3 kcal/mol | –8.1 (−8.8 to −7.5) kcal/mol | > 100 µM | –2.1 (−2.5 to −1.9) kcal/mol | > 100 µM |  |  |  |  |  | > 100 µM | –8.0 kcal/mol
